Results as given in ChEMBL document CHEMBL6074642, “Natural and Bioinspired Lipidic Alkynylcarbinols as Leishmanicidal, Antiplasmodial, Trypanocidal, Fungicidal, Antibacterial, and Antimycobacterial Agents” (J Nat Prod, 2024).
In brackets after ≈: the same amount, converted by molar mass.

Tests used:
[1] = tested on: Alternaria kikuchiana; experiment: Antifungal activity against Alternaria kikuchiana; type: functional, organism-based
[2] = tested on: Bipolaris sorokiniana; experiment: Antifungal activity against Cochliobolus sativus; type: functional, organism-based
[3] = tested on: Pseudomonas aeruginosa; experiment: Antibacterial activity against Pseudomonas aeruginosa assessed as reduction in bacterial growth incubated for 24 hrs by broth microdilution method; type: functional, organism-based
[4] = tested on: Mycobacterium intracellulare; experiment: Antibacterial activity against Mycobacterium intracellulare; type: functional, organism-based
[5] = tested on: Bacillus subtilis; experiment: Antibacterial activity against Bacillus subtilis PY79 assessed as reduction in bacterial growth; type: functional, organism-based
[6] = tested on: Leishmania donovani; experiment: Antileishmanial activity against Leishmania donovani amastigotes infected in J774 macrophage assessed as inhibition of parasite growth incubated for 48 hrs by luciferase assay; type: functional, organism-based; conditions: J774, 48 h
[7] = tested on: Leishmania donovani; experiment: Antileishmanial activity against amastigote form of Leishmania donovani infected in BALB/c mouse assessed as inhibition of parasite growth in liver at 10 mg/kg, po measured for 7 days by geimsa staining based analysis relative to control; type: functional; set-up: scale not given: the % may be the effect or the level left; conditions: time 7 day
[8] = tested on: Phytophthora capsici; experiment: Antifungal activity against Phytophthora capsici; type: functional, organism-based
[9] = tested on: Mycolicibacterium smegmatis; experiment: Antimycobacterial activity against Mycobacterium smegmatis ATCC 14468; type: functional
[10] = tested on: Mycolicibacterium phlei; experiment: Antimycobacterial activity against Mycobacterium phlei ATCC 11758; type: functional
[11] = tested on: Mycolicibacterium aurum; experiment: Antimycobacterial activity against Mycobacterium aurum; type: functional
[12] = tested on: Mycolicibacterium fortuitum; experiment: Antimycobacterial activity against Mycobacterium fortuitum ATCC 6841 assessed as bacterial growth inhibition incubated for 72 hrs by resazurin dye based broth microdilution method; type: functional
[13] = tested on: Mycobacteroides abscessus; experiment: Antimycobacterial activity against Mycobacterium abscessus ATCC 19977; type: functional
[14] = tested on: Plasmodium falciparum; experiment: Antiplasmodial activity against Plasmodium falciparum assessed as parasite growth inhibition; type: functional, organism-based
[15] = tested on: Monilinia fructigena; experiment: Antifungal activity against Monilinia fructigena; type: functional, organism-based
[16] = tested on: Enterococcus faecalis; experiment: Antibacterial activity against Enterococcus faecalis; type: functional
[17] = tested on: Streptococcus pyogenes; experiment: Antibacterial activity against Streptococcus pyogenes assessed as bacterial growth inhibition; type: functional
[18] = tested on: Bacillus subtilis; experiment: Antibacterial activity against Bacillus subtilis; type: functional
[19] = tested on: Mycobacterium tuberculosis; experiment: Antimycobacterial activity against Mycobacterium tuberculosis H37Rv assessed as inhibition of bacterial growth incubated for 7 to 14 days by MABA assay; type: functional; conditions: time 7-14 day
[20] = tested on: Mycobacterium tuberculosis; experiment: Antibacterial activity against Mycobacterium tuberculosis H37Ra assessed as reduction in bacterial growth incubated for 14 days by CLSI protocol based method; type: functional; conditions: 336 h, time 14 day
[21] = tested on: Mycolicibacterium smegmatis; experiment: Antimycobacterial activity against Mycobacterium smegmatis mc2 155 assessed as reduction in bacterial growth; type: functional
[22] = tested on: Mycolicibacterium fortuitum; experiment: Antimycobacterial activity against Mycobacterium fortuitum; type: functional
[23] = tested on: Mycobacterium tuberculosis; experiment: Antimycobacterial activity against Mycobacterium tuberculosis H37Ra; type: functional, organism-based
[24] = tested on: Mycobacterium tuberculosis; experiment: Antitubercular activity against Mycobacterium tuberculosis H37Ra assessed as inhibition of bacterial growth; type: functional
[25] = tested on: Mycobacterium tuberculosis; experiment: Antimycobacterial activity against Mycobacterium tuberculosis H37Ra ATCC 25177 assessed as reduction in bacterial growth after 7 days by resazurin microtiter assay; type: functional; conditions: H37Ra ATCC 25177, 168 h, time 7 day
[26] = tested on: Staphylococcus aureus; experiment: Antibacterial activity against Staphylococcus aureus assessed as reduction in microbial growth by CLSI based broth microdilution method; type: functional
[27] = tested on: Staphylococcus aureus; experiment: Antimicrobial activity against methicillin-resistant Staphylococcus aureus assessed as reduction in microbial growth after 24 to 48 hrs by microdilution susceptibility test; type: functional; conditions: time 24-48 hrs
[28] = tested on: Escherichia coli; experiment: Antibacterial activity against Escherichia coli; type: functional
[29] = tested on: Candida albicans; experiment: Antifungal activity against Candida albicans ATCC 10231 assessed as fungal growth inhibition; type: functional

With `C=C[C@@H](O)C#CC#CC/C=C\CCCCCCCC` as the compound, how does the EC50 [1] read?
The EC50 was 48 µg/mL (≈ 186 µM).

With `C=C[C@H](O)C#CC#CC/C=C\CCCCCCCC` as the compound, how does the EC50 [2] read?
The EC50 was 26 µg/mL (≈ 101 µM).

What does the source list for `CCCCCCCCCCCCCCCC[C@@H](O)C#CC#CCO`?
IC50 [3]: 1900 nM; IC50 [4]: 7700 nM

`C#CC(O)/C=C/C(O)CCCC(O)C(O)C#CC(O)C#CCCCC(O)/C=C/CCCCCCCCCCCCCCCCCCCCCC(O)C(O)C#CC(=O)O` (stereo not given) was tested. Which IC50 [5] did it give?
The IC50 was 25 µg/mL (≈ 30.7 µM).

What does the source list for `C=C[C@@H](C#CC#C[C@@H](CCCCCCCCC)NCCCC)OC(C)=O`?
IC50 [6]: 30 nM; Activity [7]: 32%

For `C=C[C@@H](O)C#CC#C[C@H](O)c1cccs1`, which EC50 [8] is on record?
Its EC50 is 31 µg/mL (≈ 142 µM).

`C=C[C@H](O)C#CC#CC(O)/C=C\CCCCCCC` (stereo not given in full) was tested. Which MIC [9] did it give?
The MIC was 4 µg/mL (≈ 15.4 µM).

What about the MIC [10] of the same compound?
Its MIC is 2 µg/mL (≈ 7.68 µM).

And the MIC [11]?
The MIC was 4 µg/mL.

And the MIC [12]?
Its MIC is 4 µg/mL (≈ 15.4 µM).

What about the MIC [13] of the same compound?
Its MIC is 2 µg/mL (≈ 7.68 µM).

`C=C[C@@H](O)C#CC#C[C@@H](O)c1cccs1` was tested. Which EC50 [8] did it give?
Its EC50 is 3.3 µg/mL (≈ 15.1 µM).

For `C#CC(O)/C=C/C(O)CCCC(O)C(O)C#CC(O)C#CCCCCC(=O)CCCCC/C=C/C(O)CCCCCCCCCCCCC(O)C(O)C(O)C#CC(=O)O` (stereo not given), which IC50 [5] is on record?
The IC50 was 48 µg/mL (≈ 57.9 µM).

`C=C[C@H](O)C#CC#C[C@@H](CCCCCCCCC)NC(=O)c1ccccc1` was tested. Which IC50 [6] did it give?
The IC50 was 5 nM.

For `C#CC(O)/C=C/C(O)CCCC(O)CC#CC(O)C#CC(O)CCCC(=O)CCCCC/C=C/C(O)CCCCCCCCCCCCC(O)C(O)C(O)C#CC(=O)O` (stereo not given), which IC50 [5] is on record?
The IC50 was 12 µg/mL (≈ 14.5 µM).

With `C=C[C@@H](C#CC#C[C@@H](O)CCCCCCCCC)OC(C)=O` as the compound, how does the IC50 [6] read?
The IC50 was 1300 nM.

What about the IC50 [14] of the same compound?
Its IC50 is 0.27 µg/mL (≈ 0.887 µM).

With `C#CC(O)/C=C/C(O)CCCC(O)CC#CC(O)C#CCCCCC(=O)CCCCC/C=C/C(O)CCCCCCCCCCCCCC(O)C(O)C#CC(=O)O` (stereo not given) as the compound, how does the IC50 [5] read?
Its IC50 is 12 µg/mL (≈ 15.1 µM).

How did the EC50 [8] turn out when `C=CC(O)C#CC#CC(O)c1cccs1` (stereo not given) was run?
Its EC50 is 2.1 µg/mL (≈ 9.62 µM).

What about the EC50 [15] of the same compound?
Its EC50 is 4 µg/mL (≈ 18.3 µM).

What does the source list for `C=C[C@H](O)C#CC#C[C@H](O)CCCCCCCCC`?
IC50 [6]: 13 nM; Activity [7]: 41%; IC50 [14]: 0.271 µg/mL (≈ 1.03 µM); MIC [16]: 16 µM (≈ 4.2 µg/mL); MIC [17]: 8 µM (≈ 2.1 µg/mL); MIC [18]: 2 µM (≈ 0.525 µg/mL)

Which results are given for `C=C[C@@H](C#CC#C[C@H](O)CCCCCCCCC)OC(C)=O`?
IC50 [6]: 630 nM; IC50 [14]: 0.341 µg/mL (≈ 1.12 µM); MIC [16]: 32 µM (≈ 9.74 µg/mL); MIC [17]: 8 µM (≈ 2.44 µg/mL); MIC [18]: 8 µM (≈ 2.44 µg/mL)

Which MIC [19] does the source give for `C#CC(O)/C=C/CCCCCCCCC/C=C/CCCCCCCCC/C=C/C(O)C#C` (stereo not given) here?
Its MIC is 1.4 µM (≈ 0.617 µg/mL).

Which results are given for `C=C[C@@H](O)C#CC#CC[C@H]1O[C@H]1CCCCCCC`?
MIC [20]: 6.13 µg/mL (≈ 23.5 µM); MIC [21]: 25 µg/mL (≈ 96 µM)

With `C#CC(O)/C=C/C(O)CCCC(O)C(O)C#CC(O)C#CCCCCC(=O)CCCCC/C=C/C(O)CCCCCCCCCCCCCC(O)C(O)C#CC(=O)O` (stereo not given) as the compound, how does the IC50 [5] read?
The IC50 was 25 µg/mL (≈ 30.7 µM).

How did the EC50 [8] turn out when `C=C[C@H](O)C#CC#C[C@H](O)c1cccs1` was run?
Its EC50 is 2.7 µg/mL (≈ 12.4 µM).

`C=C[C@@H](O)C#CC#CC/C=C\CCCCCCC` was tested. Which MIC [11] did it give?
Its MIC is 16 µM.

And the MIC [22]?
Its MIC is 16 µM (≈ 3.91 µg/mL).

And the IC50 [23]?
Its IC50 is 15000 nM.

What about the MIC [24] of the same compound?
Its MIC is 3.73 µg/mL (≈ 15.3 µM).

What about the MIC [20] of the same compound?
The MIC was 6.25 µg/mL (≈ 25.6 µM).

And the MIC [21]?
Its MIC is 12 µg/mL (≈ 49.1 µM).

`CCCC/C=C/C#CC#CCCCCCCCC(=O)O` [EXOCARPIC ACID] was tested. Which MIC [25] did it give?
The MIC was 20 µg/mL (≈ 72.9 µM).

With `C=C[C@@H](O)C#CC#C[C@@H](O)/C=C\CCCCCCC` [FALCARINDIOL] as the compound, how does the MIC [20] read?
Its MIC is 1.6 µg/mL (≈ 6.14 µM).

And the MIC [26]?
Its MIC is 7.8 µg/mL.

And the MIC [27]?
The MIC was 16 µg/mL.

How did the MIC [28] turn out when `CC[C@H](O)C#CC#C[C@@H](O)/C=C\CCCCCCCCOC(C)=O` [OPLOPANDIOL ACETATE] was run?
The MIC was greater than 50 µg/mL.

With `CCCCCCC/C=C\[C@H](O)C#CC#C[C@@H](O)CC` [OPLOPANDIOL] as the compound, how does the MIC [29] read?
Its MIC is 12 µg/mL (≈ 45.7 µM).
